Assay results taken from ChEMBL document CHEMBL4706681, “New 2-Pyrazoline and Hydrazone Derivatives as Potent and Selective Monoamine Oxidase A Inhibitors” (J Med Chem, 2021).
Active and inactive are the calls of the source. No cut-off for these calls is given here.

Key:
Mus musculus = assay: Antidepressant-like activity in CD1 mouse assessed as reduction in immobility time at 30 mg/kg, po administered via gavage as single dose measured after 1 hr by Porsolt-forced swim test; type: functional, organism-based
[1] = Ex vivo inhibition of MAOA in CD1 mouse brain homogenates assessed as dopamine levels at 30 mg/kg, po administered as single acute dose via gavage and measured after 1 hr by ELISA kit method (reference value: 7.08 +/- 0.58 ug/g); type: functional
[2] = Ex vivo inhibition of MAOA in CD1 mouse brain homogenates assessed as assessed as inhibition of 5-HT deamination by measuring 5-HIAA metabolite levels at 30 mg/kg, po administered as single acute dose via gavage and measured after 1 hr by HPLC analysis (reference value: 0.28 +/- 0.011 ug/g); type: functional
[3] = Ex vivo inhibition of MAOA in CD1 mouse brain homogenates assessed as assessed as inhibition of dopamine deamination by measuring DOPAC metabolite levels at 30 mg/kg, po administered as single acute dose via gavage and measured after 1 hr by HPLC analysis (reference value: 1.22 +/- 0.2 ug/g); type: functional
[4] = Ex vivo inhibition of MAOA in CD1 mouse brain homogenates assessed as MAOA level at 30 mg/kg, po administered as subchronic dose via gavage for 7 days and measured 1 hr post last dose by monoamine oxidase assay (reference value: 0.40 +/- 0.005 nmol/min/mg); type: functional; conditions: time 7 day
[5] = Ex vivo inhibition of MAOA in CD1 mouse brain homogenates assessed as inhibition of 5-HT deamination by measuring 5-HIAA metabolite levels by using at 30 mg/kg, po administered as subchronic dose via gavage for 7 days and measured 1 hr post last dose by HPLC analysis (reference value: 0.18 +/- 0.01 ug/g); type: functional; conditions: time 7 day
[6] = Ex vivo inhibition of MAOA in CD1 mouse brain homogenates assessed as 5-HT levels at 20 mg/kg, po administered as single acute dose via gavage and measured after 1 hr by ELISA kit method (reference value: 0.80 +/- 0.006 ug/g); type: functional
[7] = Ex vivo inhibition of MAOA in CD1 mouse brain homogenates assessed as inhibition of dopamine deamination by measuring DOPAC metabolite levels at 20 mg/kg, po administered as single acute dose via gavage and measured after 1 hr by HPLC analysis (reference value: 1.22 +/- 0.2 ug/g); type: functional
[8] = Ex vivo inhibition of MAOA in CD1 mouse brain homogenates assessed as 5-HT levels at 20 mg/kg, po administered as subchronic dose via gavage for 7 days and measured 1 hr post last dose by ELISA kit method (reference value: 0.78 +/- 0.01 ug/g); type: functional; conditions: time 7 day

Structure (SMILES) | Activity (Mus musculus) | Activity [1] | Activity [2] | Activity [3] | Activity [4] | Activity [5] | Activity [6] | Activity [7] | Activity [8]
COc1ccc(C2=NN(C(=O)Cn3c(=O)oc4ccc(C)cc43)C(c3cccc(OC)c3OC)C2)cc1 (centres undefined) | Active | 7.13 µg/g | 0.35 µg/g | 1.25 µg/g | 0.21 nmol/min/mg | 0.3 µg/g |  |  | 
O=C(NCCN1CCOCC1)c1ccc(Cl)cc1 [MOCLOBEMIDE] |  |  |  |  |  |  | 0.83 µg/g | 1.24 µg/g | 0.91 µg/g
